Key:
[1] = target: Estrogen receptor beta (Homo sapiens) (UniProt Q92731); assay: Binding affinity for Estrogen receptor beta compared to estradiol (100%)
[2] = target: T1, Estrogen receptor (Homo sapiens) (UniProt P03372); assay: Binding affinity for Estrogen receptor alpha compared to estradiol (100%)
T1 sequence (whole entry): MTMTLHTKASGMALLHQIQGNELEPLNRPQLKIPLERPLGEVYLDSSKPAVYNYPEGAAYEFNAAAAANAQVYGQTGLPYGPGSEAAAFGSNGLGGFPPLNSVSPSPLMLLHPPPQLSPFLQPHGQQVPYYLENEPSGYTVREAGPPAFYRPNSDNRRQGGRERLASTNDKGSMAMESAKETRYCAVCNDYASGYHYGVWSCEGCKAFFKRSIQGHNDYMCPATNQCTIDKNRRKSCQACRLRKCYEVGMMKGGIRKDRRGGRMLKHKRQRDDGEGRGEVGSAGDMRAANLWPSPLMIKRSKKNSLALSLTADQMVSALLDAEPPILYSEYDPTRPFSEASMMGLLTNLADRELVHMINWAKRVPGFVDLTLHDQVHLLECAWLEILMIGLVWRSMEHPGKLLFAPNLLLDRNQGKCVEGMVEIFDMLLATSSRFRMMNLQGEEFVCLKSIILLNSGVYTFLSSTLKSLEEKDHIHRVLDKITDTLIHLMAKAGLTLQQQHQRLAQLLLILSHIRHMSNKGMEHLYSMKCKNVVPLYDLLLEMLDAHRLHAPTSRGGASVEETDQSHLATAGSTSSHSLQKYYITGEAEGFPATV

Estrogen receptor beta (Homo sapiens), sequence (Q92731 whole entry): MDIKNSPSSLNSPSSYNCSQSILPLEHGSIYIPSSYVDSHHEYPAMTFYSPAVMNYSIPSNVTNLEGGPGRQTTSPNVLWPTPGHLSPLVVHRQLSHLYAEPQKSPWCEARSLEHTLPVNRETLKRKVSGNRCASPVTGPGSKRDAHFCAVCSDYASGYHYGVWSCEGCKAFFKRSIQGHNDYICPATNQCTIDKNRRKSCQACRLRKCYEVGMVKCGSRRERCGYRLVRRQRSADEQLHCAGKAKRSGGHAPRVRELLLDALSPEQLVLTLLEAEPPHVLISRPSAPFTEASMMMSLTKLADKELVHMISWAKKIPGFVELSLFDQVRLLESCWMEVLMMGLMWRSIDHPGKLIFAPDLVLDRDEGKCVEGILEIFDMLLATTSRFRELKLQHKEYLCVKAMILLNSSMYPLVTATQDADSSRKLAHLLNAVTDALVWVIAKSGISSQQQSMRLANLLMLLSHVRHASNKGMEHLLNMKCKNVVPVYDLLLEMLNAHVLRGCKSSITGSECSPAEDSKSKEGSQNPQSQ

Row | SMILES | Binding affinity [1] [%] | Binding affinity [2] [%]
1 | Oc1ccc(-c2nn3cc(O)cnc3c2-c2ccccc2)cc1 | 0.01 | 0.003
2 | Oc1cnc2c(-c3ccccc3)c(-c3ccccc3)nn2c1 | 0.005 | –
3 | Oc1ccc(-c2c(-c3ccccc3)nn3cccnc23)cc1 | 0.02 | 0.007
4 | Oc1ccc(-c2nn3cccnc3c2-c2ccccc2)cc1 | 0.05 | 0.01
5 | Oc1ccc(-c2nn3cc(O)cnc3c2-c2ccc(O)cc2)cc1 | 0.03 | 0.004
6 | Oc1ccc(-c2c(-c3ccccc3)nn3cc(O)cnc23)cc1 | 0.006 | –
7 | Oc1ccc(-c2nn3cccnc3c2-c2ccc(O)cc2)cc1 | 0.1 | 0.004
